Measurements from patent US20120070377A1, “COMPOUNDS AND BIOLOGICAL MATERIALS AND USES THEREOF” (priority 2009, published 2012).
“Also recorded” adds a separate entry of the source. Like-named read-outs stand apart in the source and are kept apart here.

Key:
[1] = Skin photosensitivity in a murine model; format: in vivo; conditions: laser on the skin after 1 hour, monitored over 4 days, scale of 1-4
Protocol: FIG. 24: Skin photosensitivity of Foscan compared to compound II. Photosensitisers were administered at t=0 hrs and a laser shone on the skin after 1 hour. The skin reaction was followed over time and the results were plotted according to the scale shown.
Skin photosensitivity is an important issue to be resolved in PDT. […] In a murine model, Foscan was administered at clinical doses (ref 109) and compared to compound 11 and a photo-immunoconjugate of compound 11. Skin photosensitivity was monitored over 4 days by observation according to a scale of 1-4 (FIG. 24).

[2] = background statement; cited from earlier work
[3] = Photophysical parameters of the photosensitisers; format: physicochemical; conditions: for φΔ, singlet oxygen quantum yield: determined vs. PPa in toluene (0.5), 10% error; for φf, fluorescence quantum yield: determined vs. PPa in toluene (φf = 0.3), 5% error
KB = assay: In vitro phototoxicity (MTS cell titre assay after 670 nm laser light), Example 5; format: cell-based, human; conditions: free photosensitisers, 2 hrs incubation, 670 nm laser 0.5 W 10 s, MTS after 48 h
Protocol: (§1) Two different human-derived tumour cell lines: SKOV3 and KB were obtained from the European Collection of Cell Cultures (ECACC) and cultured in Dulbecco's modified Eagle's medium (DMEM) with 10% foetal bovine serum, penicillin and streptomycin antibiotics (1%) and passaged when 70-90% confluent in 75 cm^2 flasks. The cells were maintained at 37° C. in a humidified 5% CO2 atmosphere.
(§2) Cells were trypsinised and seeded at 2×10^3 cells/well for KB and 3×10^3 cells/well for SKOV3 into 96-well plates and incubated over two nights for KB and overnight for SKOV3 at 37° C. and 5% CO2. The cells were then washed once in phenol red free DMEM and appropriately diluted photosensitiser solution or photo-immunoconjugate (in DMEM, 2% DMSO) was added to the appropriate wells under subdued lighting. DMEM or Triton X-100 (1%) were added to control wells. After 2 hrs incubation in the dark at 37° C., 5% CO2, cells were washed three times with PBS and 100 μl of DMEM was added to each well.
(§3) Wells were exposed to light from a High Powered-Devices 670 nm laser used at 0.5 W for 10 s. Controls included wells with photosensitiser added and no exposure to light, or DMEM added and exposure to light as well as Triton X-100 (1%) with or without light exposure. Cells that had no photosensitiser added and no exposure to light were included as overall controls. Cells were incubated in the dark at 37° C., 5% CO2 for 48 h after which time, a cell titre assay was performed according to the manufacturer's instructions. The Promega Cell Titre-96 system was used which involves the conversion by live cells of a tetrazolium compound (MTS) into a formazan dye which is measurable by its absorbance at 490 nm.

SKOV3 = assay: as above; format: cell-based, human; conditions: free photosensitisers, 2 hrs incubation, 670 nm laser 0.5 W 10 s, MTS after 48 h
Protocol: as §1, §2, §3

[4] = Biodistribution and blood clearance of 125I-radiolabelled photosensitisers and PICs in SKOV3 tumour mice; format: in vivo, BALB/c nude mice; conditions: for blood clearance: iv, radiolabelled, 1-24 hr, SKOV3 tumour mice
Protocol: 0.1 mg of photosensitiser was dissolved in 0.5 ml PBS. Radiolabelled Iodine (Na^125I, ICN chemicals) was added to 0.1 ml of PBS in Iodogen-coated tubes (Pierce chemicals) and allowed to activate. The activated iodine-125 was transferred to the photosensitiser and allowed to react for 5-10 minutes at room temperature. The radiolabelled photosensitiser was separated from free iodine on a mini silica gel column eluting with 100% PBS to remove the iodinating agent followed by a gradual switch from 10% MeOH/PBS to 100% MeOH with the radiolabelled photosenstiser eluting with 10% MeOH/chloroform. The radiolabelled solutions of the photosensitiser was allowed to air-dry and re-suspended in PBS containing 2% DMSO.
(§4) Female BALB/c nude mice (aged 6-8 weeks old) were implanted with 10^7 SKOV3 tumour cells mixed in 0.1 ml of ice-cold matrigel subcutaneously and the tumours were allowed to grow for 3-6 weeks as xenografts. Mice were maintained in IVC cages (individually-vented cages) in a clean room. Samples were injected in a volume of 0.1 ml, intravenously via the lateral tail vein and the mice were maintained in low light with full food and water (irradiated). At various time points (1-24 hr), mice were culled by cardiac puncture under terminal anesthesia and blood and tissues collected. All the tissues were counted for radioactivity by gamma counting and weighed.
The results are shown as a percentage of radioactive material injected per gram of tissue.
(§5) The PS (PPa and PPa-PEG) were chemically coupled to C6 scFv, radiolabelled with iodogen as before, but dialysed against 3×5 L of PBS to remove the free iodine and injected into BALB/c nude mice with SKOV3 tumours as above. Tissues were dissected and counted as above.

SKOV3 cells = assay: Confocal fluorescence microscopy, intracellular localisation with organelle co-stains; format: cell-based, human; conditions: for golgi localisation (co-localisation with Bodipy ceramide): FIG. 20; for mitochondrial localisation (co-localisation with Mito-tracker): FIG. 21; for lysosomal localisation (co-localisation with Lyso-tracker): FIG. 22
Protocol: Imaging took place at the FILM Imperial College London on a LEICA SP5 MP inverted confocal microscope, at 37° C. and under a CO2 supplemented atmosphere. The water objective (63×) was used in all the experiments. Images were processed using the Leica software, Image J and Powerpoint.
Note: in any experiment where a photosensitiser is used on cells, the experiment is done under subdued lighting exposing the cells to as little light as possible and incubating wrapped in foil. Following addition of PS to cells, cells were no longer observed on the microscope.
Cells were plated on a Labt-Tek® 8 Chambered #1.0 Borosilicate Coverglass System. With some cell lines, it is often useful to use an attachment factor (200 μl, 30 mins, 37° C.) to coat the wells first.
Photosensitiser solutions in phenol red free DMEM (10% FBS, 1% P/S, 0.5% DMSO) were prepared fresh and pre-warmed to 37° C. for 15 mins. The cells were washed with media (1×200 μl) before adding the solutions (200 μl per chamber). Unless otherwise stated, the cells were grown over 20 hrs in a humidified atmosphere (37° C., 5% CO2). The cells were washed (2×200 μl) with prewarmed phenol red free DMEM
(§6) Lysotracker® Green DND-26 was diluted according to manufacturers indications (1 mM stock) and further diluted to twice the working concentration in DMEM (10% FBS, 1% P/S). For use for single colour staining, this was diluted with DMEM (10% FBS, 1% P/S) to a final concentration of 1 μM. When it was used for two colour staining with photosensitisers, a 2 μM solution was twice diluted in photosensitiser solution to give a 1 μM final concentration.
The cells were incubated for 15 mins at 4° C. and a further 30 mins at 37° C. before replacing with fresh medium and imaging.
as §6, with “MitoTracker®” for “Lysotracker®”, “Green” for “Green DND-26”
The cells were incubated for 15 mins at 4° C. and a further 1 hr at 37° C. before replacing with fresh medium and imaging.
ER-Tracker™ Green (BODIPY® FL glibenclamide) was diluted according to manufacturer's indications (1 mM stock) and further diluted to twice the working concentration in HBSS buffer (+2% HEPES). For use for single colour staining, this was diluted with HBSS (+2% HEPES) to a final concentration of 3 μM. When it was used for two colour staining with photosensitisers, a 6 μM solution was twice diluted in photosensitiser solution to give a 3 μM final concentration.
The cells were incubated for 15 mins at 4° C. and a further 1 hr at 37° C. before replacing with fresh buffer and imaging.
Bodipy® FL C5-ceramide complexed to BSA was diluted according to manufacturer's indications (0.5 mM stock) and further diluted to twice the working concentration in HBSS buffer (+2 HEPES). For use for single colour staining, this was diluted with HBSS (+2% HEPES) to a final concentration of 5 μM. When it was used for two colour staining with photosensitisers, a 10 μM solution was twice diluted in photosensitiser solution to give a 5 μM final concentration. The cells were incubated for 15 mins at 4° C. and a further 30 mins at 37° C. before washing with cold HBSS/HEPES (3×100 μl) and replacing with either HBSS/HEPES or photosensitiser solution and incubating at 37° C. for a further 30 mins before replacing with fresh buffer and imaging.

[5] = Solubility in water or buffer (observations); format: physicochemical
SKOV3 tumour = assay: Tumour uptake and tumour:blood ratio of radiolabelled photosensitisers and PICs; format: in vivo, BALB/c nude mice; conditions: % of the injected dose/g of tumour tissue
Protocol: as §4, §5
The tumours were counted for radioactivity and expressed as % of the injected dose/g of tumour tissue (FIG. 10).
The percentage PS in the tumour was divided by the percentage in the blood (gram for gram) to give a targeting or tumour:blood ratio (the higher the better). This plotted in FIG. 11. A high tumour:blood ratio means that there is more in the tumour compared to the blood (and other tissues). This is a function of tumour uptake and blood clearance (see FIGS. 9 and 10).

[6] = reference value of PPa in toluene; cited from earlier work

## Oc1cccc(-c2c3nc(c(-c4cccc(O)c4)c4ccc([nH]4)c(-c4cccc(O)c4)c4nc(c(-c5cccc(O)c5)c5ccc2[nH]5)CC4)C=C3)c1 [Foscan, reference compound]
[1]
  skin photosensitivity: significant skin sensitivity
[2]
  skin photosensitivity (duration): about 2 weeks

## CCC1=C(C)c2cc3[nH]c(c(C)c3CC)c(C#CCCCC(=O)O)c3nc(c4c5[nH]c(cc1n2)c(C)c5C(=O)C4)[C@@H](CCC(=O)OCc1cc(OCCOCCOCCOC)c(OCCOCCOCCOC)c(OCCOCCOCCOC)c1)[C@@H]3C [compound 10, Meso 5-Ethynylhexanoic acid pyropheophorbide a-3,4,5-(triethylene glycolmonomethylether) benzyl ester]
[3]
  τΔ, singlet oxygen lifetime: 30 μs
  φΔ, singlet oxygen quantum yield: 0.56
  φf, fluorescence quantum yield: 0.26

## CCC1=C(C)c2cc3[nH]c(c(C)c3CC)c(-c3cc[n+](CCOCCOCCOC)cc3)c3nc(c4c5[nH]c(cc1n2)c(C)c5C(=O)C4)[C@@H](CCC(=O)O)[C@@H]3C [compound 31C, 3-devinyl-20-(4-triethyleneoxidepyridinium) pyropheophorbide-a chloride]
[3]
  τΔ, singlet oxygen lifetime: 30 μs
  φΔ, singlet oxygen quantum yield: 0.73
  φf, fluorescence quantum yield: 0.15
KB; Homo sapiens, KB
  IC50: 24.7 ± 11.7 µM
SKOV3; Homo sapiens, SK-OV-3
  IC50: 260 ± 31 µM
[4]
  blood clearance: clears more rapidly than the PPa-PEG
SKOV3 cells
  golgi localisation (co-localisation with Bodipy ceramide): very little yellow staining
  mitochondrial localisation (co-localisation with Mito-tracker): very little yellow staining
  lysosomal localisation (co-localisation with Lyso-tracker): significant yellow staining
SKOV3 cells; FIG. 23
  ER localisation (co-localisation with ER-tracker): no yellow staining
SKOV3 cells; no co-stain, FIG. 19
  intracellular localisation (intrinsic fluorescence): more punctuate staining pattern indicative of endosomal (aqueous compartment) localisation

## Manganese(III)-5-ethynyl hexynoic acid pyropheophorbide a-3,4,5-(triethylnene glycol monomethyl ether) benzyl ester [compound 57]
[5]
  solubility in water: water soluble

## Meso pyropheophorbide a-3,4,5-(triethylene glycol monmethylether) 3-devinyl-3-carboxybenzyl-3,4,5-(triethylene glycol monomethylether) pyropheophorbide a [compound 38]
[5]
  solubility in water: highly aqueous soluble

## N-Bis-[3-(trimethylamino)propyl]-meso 5-Bromopyropheophorbide a amide diiodide [compound 19]
[5]
  solubility in water: readily soluble in water and methanol

## Pyropheophorbide-a [PPa, reference compound]
[3]
  τΔ, singlet oxygen lifetime: 30 μs
KB
  IC50: 1.2 ± 0.4 µM
SKOV3
  IC50: 14.5 ± 3.2 µM
[4]; % of radioactive material injected per gram of tissue, over 24 hour
  level in tissues (biodistribution): high levels in all major tissues
[4]
  blood clearance: resides in the blood for a long time; also recorded: very slow
SKOV3 tumour
  tumour uptake: high
SKOV3 cells
  golgi localisation (co-localisation with Bodipy ceramide): significant yellow staining
  mitochondrial localisation (co-localisation with Mito-tracker): significant yellow staining
  lysosomal localisation (co-localisation with Lyso-tracker): insignificant yellow staining
[6]
  φf, fluorescence quantum yield: 0.3
  φΔ, singlet oxygen quantum yield: 0.5
